In ChEMBL document CHEMBL3885881, “DrugMatrix”:

Species on record: Rattus norvegicus
Assay: DrugMatrix - Regimen: Daily Repeat
Format: toxicity, organism-based, Sprague-Dawley
Parameters: regimen Daily Repeat, gender Male, age 6-8 weeks
Details: in vivo, po, route oral GAVAGE, vehicle 100 % WATER; for BASOPHIL / EOSINOPHIL / ERYTHROCYTE COUNT / HEMATOCRIT / HEMOGLOBIN / LEUKOCYTE COUNT / LYMPHOCYTE / MEAN CORPUSCULAR HEMOGLOBIN / MEAN CORPUSCULAR HEMOGLOBIN CONCENTRATION / MEAN CORPUSCULAR VOLUME / MONOCYTE / NEUTROPHIL / PLATELET COUNT: tissue Blood; for ALANINE AMINOTRANSFERASE / ALBUMIN / ALKALINE PHOSPHATASE / ASPARTATE AMINOTRANSFERASE / BLOOD UREA NITROGEN / CHLORIDE / CHOLESTEROL / CREATINE PHOSPHOKINASE / CREATININE / GLUCOSE / PHOSPHORUS / POTASSIUM / SODIUM / TOTAL BILIRUBIN / TOTAL PROTEIN: tissue Plasma
[1] = 0 mg/kg, 72 h, dose level Control, time 3 day
[2] = 0 mg/kg, 120 h, dose level Control, time 5 day
[3] = 8 mg/kg, 72 h, dose level Low, time 3 day

With `CCN[C@@H](C)Cc1cccc(C(F)(F)F)c1` [DEXFENFLURAMINE] the BASOPHIL [1] was 0%, the EOSINOPHIL [1] was 0.5% and the “ERYTHROCYTE COUNT” value [1] was 5.8 x10E6/uL. For the same compound, the HEMATOCRIT [1] was 35.07%, the HEMOGLOBIN [1] was 14.12 G/DL and the “LEUKOCYTE COUNT” value [1] was 13.7 x10E3/uL. For the same compound, the LYMPHOCYTE [1] was 82.33%, the “MEAN CORPUSCULAR HEMOGLOBIN” value [1] was 24.38 pg and the “MEAN CORPUSCULAR HEMOGLOBIN CONCENTRATION” value [1] was 40.28 G/DL. For the same compound, the “MEAN CORPUSCULAR VOLUME” value [1] was 60.52 fL, the MONOCYTE [1] was 2.67% and the NEUTROPHIL [1] was 14.5%. The “PLATELET COUNT” value [1] was 911.5 x10E3/uL, the “ALANINE AMINOTRANSFERASE” value [1] was 36.83 u/L and the ALBUMIN [1] was 3.75 G/DL. The “ALKALINE PHOSPHATASE” value [1] was 399.83 u/L, the “ASPARTATE AMINOTRANSFERASE” value [1] was 66 u/L and the “BLOOD UREA NITROGEN” value [1] was 14.67 mg/dL. The CHLORIDE [1] was 101.67 MEQ/L, the CHOLESTEROL [1] was 66.33 mg/dL and the “CREATINE PHOSPHOKINASE” value [1] was 139.5 u/L. The CREATININE [1] was 0.92 mg/dL, the GLUCOSE [1] was 175 mg/dL and the PHOSPHORUS [1] was 11.42 mg/dL. The POTASSIUM [1] was 7.03 MEQ/L, the SODIUM [1] was 148.5 MEQ/L and the “TOTAL BILIRUBIN” value [1] was 1.13 mg/dL. The “TOTAL PROTEIN” value [1] was 6.87 G/DL, the BASOPHIL [2] was 0% and the EOSINOPHIL [2] was 0.2%. For the same compound, the “ERYTHROCYTE COUNT” value [2] was 6.02 x10E6/uL, the HEMATOCRIT [2] was 36.48% and the HEMOGLOBIN [2] was 14.38 G/DL. The “LEUKOCYTE COUNT” value [2] was 12.34 x10E3/uL, the LYMPHOCYTE [2] was 83% and the “MEAN CORPUSCULAR HEMOGLOBIN” value [2] was 23.92 pg. For the same compound, the “MEAN CORPUSCULAR HEMOGLOBIN CONCENTRATION” value [2] was 39.44 G/DL, the “MEAN CORPUSCULAR VOLUME” value [2] was 60.66 fL and the MONOCYTE [2] was 3%. The NEUTROPHIL [2] was 13.8%, the “PLATELET COUNT” value [2] was 1190.6 x10E3/uL and the “ALANINE AMINOTRANSFERASE” value [2] was 43 u/L. For the same compound, the ALBUMIN [2] was 3.73 G/DL, the “ALKALINE PHOSPHATASE” value [2] was 393 u/L and the “ASPARTATE AMINOTRANSFERASE” value [2] was 62.33 u/L. The “BLOOD UREA NITROGEN” value [2] was 16.33 mg/dL, the CHLORIDE [2] was 101.67 MEQ/L and the CHOLESTEROL [2] was 65.5 mg/dL. The “CREATINE PHOSPHOKINASE” value [2] was 130.67 u/L, the CREATININE [2] was 0.58 mg/dL and the GLUCOSE [2] was 180.67 mg/dL. For the same compound, the PHOSPHORUS [2] was 11.28 mg/dL, the POTASSIUM [2] was 7.05 MEQ/L and the SODIUM [2] was 148.17 MEQ/L. The “TOTAL BILIRUBIN” value [2] was 0.72 mg/dL, the “TOTAL PROTEIN” value [2] was 6.83 G/DL and the BASOPHIL [3] was 0%. For the same compound, the EOSINOPHIL [3] was 0%, the “ERYTHROCYTE COUNT” value [3] was 5.97 x10E6/uL and the HEMATOCRIT [3] was 35.8%. The HEMOGLOBIN [3] was 14.33 G/DL, the “LEUKOCYTE COUNT” value [3] was 8.6 x10E3/uL and the LYMPHOCYTE [3] was 86.33%. For the same compound, the “MEAN CORPUSCULAR HEMOGLOBIN” value [3] was 24.03 pg, the “MEAN CORPUSCULAR HEMOGLOBIN CONCENTRATION” value [3] was 40.07 G/DL and the “MEAN CORPUSCULAR VOLUME” value [3] was 60 fL. For the same compound, the MONOCYTE [3] was 3.67%, the NEUTROPHIL [3] was 10% and the “PLATELET COUNT” value [3] was 1151 x10E3/uL. For the same compound, the “ALANINE AMINOTRANSFERASE” value [3] was 34.67 u/L, the ALBUMIN [3] was 3.8 G/DL and the “ALKALINE PHOSPHATASE” value [3] was 406.67 u/L. For the same compound, the “ASPARTATE AMINOTRANSFERASE” value [3] was 62.67 u/L, the “BLOOD UREA NITROGEN” value [3] was 16 mg/dL and the CHLORIDE [3] was 100.33 MEQ/L. For the same compound, the CHOLESTEROL [3] was 70 mg/dL, the “CREATINE PHOSPHOKINASE” value [3] was 167.33 u/L and the CREATININE [3] was 0.77 mg/dL. It also gave a GLUCOSE [3] of 174 mg/dL, a PHOSPHORUS [3] of 11.97 mg/dL and a POTASSIUM [3] of 6.93 MEQ/L. The SODIUM [3] was 148.67 MEQ/L, the “TOTAL BILIRUBIN” value [3] was 0.67 mg/dL and the “TOTAL PROTEIN” value [3] was 6.7 G/DL.
